In PMC11602622, “Evolution of queen pheromone receptor tuning in four honeybee species (Hymenoptera, Apidae, Apis)” (iScience, 2024):
Positions count from the first letter of the chain named.

Legend:
AdorOR11 = system: T1, AdorOR11; assay: transcuticular GCaMP6m calcium imaging of Drosophila antenna, dose-response; format: cell-based, Apis dorsata; details: agonist; airborne odorant, unit is dose loaded on filter paper, not a concentration; 1 s stimulus; solvent 2-propanol
T1 construct: gene OR11; full-length ORF, Drosophila codon-optimized synthetic gene (pUAST.attB, locus 51C); expressed in Drosophila at1 OSNs in place of DmelOR67d, with endogenous fly Orco and GCaMP6m; same length as the other OR11

AcerOR11 [1] = biological target: T2, AcerOR11 (Apis cerana, UniProt A0A3G2FPT9); assay: as above; format: cell-based; details: agonist; airborne odorant, unit is dose loaded on filter paper, not a concentration; 1 s stimulus; solvent 2-propanol
T2 construct: full-length ORF, Drosophila codon-optimized synthetic gene (pUAST.attB, locus 51C); expressed in Drosophila at1 OSNs in place of DmelOR67d, with endogenous fly Orco and GCaMP6m; same length as the other OR11
T2 sequence (A0A3G2FPT9 1-394): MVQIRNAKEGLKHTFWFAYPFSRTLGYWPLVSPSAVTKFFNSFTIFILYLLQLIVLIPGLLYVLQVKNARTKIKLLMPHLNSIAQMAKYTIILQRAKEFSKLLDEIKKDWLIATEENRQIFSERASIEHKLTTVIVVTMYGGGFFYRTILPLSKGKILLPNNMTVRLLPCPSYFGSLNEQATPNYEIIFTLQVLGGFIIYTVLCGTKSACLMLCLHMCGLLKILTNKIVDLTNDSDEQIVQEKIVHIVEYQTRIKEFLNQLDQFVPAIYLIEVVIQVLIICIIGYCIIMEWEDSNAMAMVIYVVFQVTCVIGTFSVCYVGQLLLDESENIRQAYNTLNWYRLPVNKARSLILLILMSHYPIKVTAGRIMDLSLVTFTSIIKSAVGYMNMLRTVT

AmelOR11 = biological target: T3, AmelOR11 (Apis mellifera, UniProt A0A7M6UWX0); assay: as above; format: cell-based; details: agonist; airborne odorant, unit is dose loaded on filter paper, not a concentration; 1 s stimulus; solvent 2-propanol
T3 construct: gene Or11; full-length ORF, Drosophila codon-optimized synthetic gene (pUAST.attB, locus 51C); expressed in Drosophila at1 OSNs in place of DmelOR67d, with endogenous fly Orco and GCaMP6m; same length as the other OR11
T3 sequence (A0A7M6UWX0 1-394): T2 sequence (A0A3G2FPT9 1-394) with V36F, I47T, L50F, Q52E, A69P, I112L, I228V, V229M, I239V, N345K

AflorOR11 = system: T4, AflorOR11; assay: as above; format: cell-based, Apis florea; details: agonist; airborne odorant, unit is dose loaded on filter paper, not a concentration; 1 s stimulus; solvent 2-propanol
T4 construct: gene OR11; full-length ORF, Drosophila codon-optimized synthetic gene (pUAST.attB, locus 51C); expressed in Drosophila at1 OSNs in place of DmelOR67d, with endogenous fly Orco and GCaMP6m; same length as the other OR11

AcerOR11 [2] = biological target: T2, AcerOR11; assay: transcuticular GCaMP6m calcium imaging of Drosophila antenna, single-dose screen; format: cell-based; details: agonist; 100 μg on filter paper; 1 s stimulus; solvent 2-propanol

Structure (SMILES) | EC50 (AdorOR11) [µg] | EC50 (AcerOR11 [1]) [µg] | EC50 (AmelOR11) [µg] | EC50 (AflorOR11) [µg] | calcium response (ΔF/F0) (AcerOR11 [2])
CCC/C=C/C(=O)O [trans-2-hexenoic acid] | 124.2 ± 9.58 | 105.8 ± 9.62 | 239.2 ± 72.06 | – | –
CCCC(=O)C(=O)O [2-oxovaleric acid] | 139.3 ± 28.55 | 208.5 ± 39.57 | 84.26 ± 15.52 | – | –
CC(=O)CCCCC/C=C/C(=O)O [9-ODA, 9-oxo-(E)-2-decenoic acid] | 173.4 ± 22.22 | 174.8 ± 26.05 | 160.5 ± 28.46 | 175.8 ± 29.59 | –
CC(=O)CCC=C(C)C [6-methyl-5-hepten-2-one] | – | – | – | – | AcerOR11 responded to a third secondary ligand: 6-methyl-5-hepten-2-one
